Values joined by “and” are separate entries in the source; they are usually repeats but may differ in a detail not shown here. Identical values can stand only once.
How the values were obtained:
CCK1 (CCKA) (h) = molecular target: T1, CCK1 (CCKA) (h) (Homo sapiens, UniProt P32238); test: CEREP binding panel; conditions: agonist radioligand, read-out: % Inhibition of Control Specific Binding
T1 construct: purchased Millipore KinaseProfiler (kinases); Cerep (receptors and ion channels)

JNK3 = molecular target: T2, JNK3 (Homo sapiens, UniProt P53779); test: Millipore kinase panel; type: biochemical; conditions: read-out: % Control
T2 construct: purchased Millipore KinaseProfiler (kinases); Cerep (receptors and ion channels)

5-HT1A (h) = molecular target: T3, 5-HT1A (h) (Homo sapiens, UniProt P08908); test: CEREP binding panel; conditions: agonist radioligand, read-out: % Inhibition of Control Specific Binding
T3 construct: purchased Millipore KinaseProfiler (kinases); Cerep (receptors and ion channels)

NK3 (h) = molecular target: T4, NK3 (h) (Homo sapiens, UniProt P29371); test: CEREP binding panel; conditions: antagonist radioligand, read-out: % Inhibition of Control Specific Binding
T4 construct: purchased Millipore KinaseProfiler (kinases); Cerep (receptors and ion channels)

NEK3 = molecular target: T5, NEK3 (Homo sapiens, UniProt P51956); test: Millipore kinase panel; type: biochemical; conditions: read-out: % Control
T5 construct: purchased Millipore KinaseProfiler (kinases); Cerep (receptors and ion channels)

SGK3 = molecular target: T6, SGK3 (Homo sapiens, UniProt Q96BR1); test: Millipore kinase panel; type: biochemical; conditions: read-out: % Control
T6 construct: purchased Millipore KinaseProfiler (kinases); Cerep (receptors and ion channels)

BLK = test: Millipore kinase panel; type: biochemical; conditions: 1 μM, ATP at Km
MINK = molecular target: T7, MINK (Homo sapiens, UniProt Q8N4C8); test: Millipore kinase panel; type: biochemical; conditions: read-out: % Control
T7 construct: purchased Millipore KinaseProfiler (kinases); Cerep (receptors and ion channels)

RET = molecular target: T8, RET (Homo sapiens, UniProt P07949); test: Millipore kinase panel; type: biochemical; conditions: read-out: % Control
T8 construct: purchased Millipore KinaseProfiler (kinases); Cerep (receptors and ion channels)
T8 sequence (P07949 29-1114): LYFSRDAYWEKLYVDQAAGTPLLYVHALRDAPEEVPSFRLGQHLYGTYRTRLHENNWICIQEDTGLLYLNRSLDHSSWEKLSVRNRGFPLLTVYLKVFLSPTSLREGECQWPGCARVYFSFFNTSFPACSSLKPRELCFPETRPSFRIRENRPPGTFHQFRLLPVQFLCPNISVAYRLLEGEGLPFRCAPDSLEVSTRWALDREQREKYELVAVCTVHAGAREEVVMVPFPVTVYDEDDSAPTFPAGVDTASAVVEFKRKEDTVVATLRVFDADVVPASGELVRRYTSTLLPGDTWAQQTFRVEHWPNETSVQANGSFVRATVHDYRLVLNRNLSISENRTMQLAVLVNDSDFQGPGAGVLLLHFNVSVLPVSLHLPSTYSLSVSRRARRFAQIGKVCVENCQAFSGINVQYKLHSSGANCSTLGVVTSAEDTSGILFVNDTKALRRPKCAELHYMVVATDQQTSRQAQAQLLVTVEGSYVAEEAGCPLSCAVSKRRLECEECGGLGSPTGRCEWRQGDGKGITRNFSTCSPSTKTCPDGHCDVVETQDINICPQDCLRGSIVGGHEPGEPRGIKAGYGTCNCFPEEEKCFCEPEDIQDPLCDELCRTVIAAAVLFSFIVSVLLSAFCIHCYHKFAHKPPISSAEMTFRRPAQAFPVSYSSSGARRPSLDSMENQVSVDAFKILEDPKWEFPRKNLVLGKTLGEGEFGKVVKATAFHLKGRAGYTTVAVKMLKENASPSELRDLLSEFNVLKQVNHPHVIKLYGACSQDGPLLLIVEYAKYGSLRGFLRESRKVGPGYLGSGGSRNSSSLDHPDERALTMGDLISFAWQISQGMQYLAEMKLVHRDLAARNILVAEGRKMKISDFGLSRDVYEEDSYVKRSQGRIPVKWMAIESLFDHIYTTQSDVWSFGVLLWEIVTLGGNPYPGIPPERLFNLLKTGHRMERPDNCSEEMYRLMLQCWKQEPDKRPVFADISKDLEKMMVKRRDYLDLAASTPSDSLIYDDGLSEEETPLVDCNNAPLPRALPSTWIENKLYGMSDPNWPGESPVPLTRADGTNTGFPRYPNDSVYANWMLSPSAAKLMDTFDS

H1 (h) = molecular target: T9, H1 (h) (Homo sapiens, UniProt P35367); test: CEREP binding panel; conditions: antagonist radioligand, read-out: % Inhibition of Control Specific Binding
T9 construct: purchased Millipore KinaseProfiler (kinases); Cerep (receptors and ion channels)

CSK = molecular target: T10, CSK (Homo sapiens, UniProt P41240); test: Millipore kinase panel; type: biochemical; conditions: read-out: % Control
T10 construct: purchased Millipore KinaseProfiler (kinases); Cerep (receptors and ion channels)

RIPK2 = molecular target: T11, RIPK2 (Homo sapiens, UniProt O43353); test: Millipore kinase panel; type: biochemical; conditions: read-out: % Control
T11 construct: purchased Millipore KinaseProfiler (kinases); Cerep (receptors and ion channels)

CKIT = molecular target: T12, CKIT (Homo sapiens, UniProt P10721); test: Millipore kinase panel; type: biochemical; conditions: read-out: % Control
T12 construct: purchased Millipore KinaseProfiler (kinases); Cerep (receptors and ion channels)

EPHA3 = molecular target: T13, EPHA3 (Homo sapiens, UniProt P29320); test: Millipore kinase panel; type: biochemical; conditions: read-out: % Control
T13 construct: purchased Millipore KinaseProfiler (kinases); Cerep (receptors and ion channels)

Na+ channel (site 2) = test: CEREP binding panel; conditions: 10 μM, antagonist radioligand
MAPKAP-K2 = molecular target: T14, MAPKAP-K2 (Homo sapiens, UniProt P49137); test: Millipore kinase panel; type: biochemical; conditions: read-out: % Control
T14 construct: purchased Millipore KinaseProfiler (kinases); Cerep (receptors and ion channels)

RSK1 = molecular target: T15, RSK1 (Homo sapiens, UniProt Q15418); test: Millipore kinase panel; type: biochemical; conditions: read-out: % Control
T15 construct: purchased Millipore KinaseProfiler (kinases); Cerep (receptors and ion channels)

PYK2 = molecular target: T16, PYK2 (Homo sapiens, UniProt Q14289); test: Millipore kinase panel; type: biochemical; conditions: read-out: % Control
T16 construct: purchased Millipore KinaseProfiler (kinases); Cerep (receptors and ion channels)

MAPK1 = molecular target: T17, MAPK1 (Homo sapiens, UniProt P27361); test: Millipore kinase panel; type: biochemical; conditions: read-out: % Control
T17 construct: purchased Millipore KinaseProfiler (kinases); Cerep (receptors and ion channels)

PDGFRALPHA = molecular target: T18, PDGFRALPHA (Homo sapiens, UniProt P16234); test: Millipore kinase panel; type: biochemical; conditions: read-out: % Control
T18 construct: purchased Millipore KinaseProfiler (kinases); Cerep (receptors and ion channels)

MSSK1 = molecular target: T19, MSSK1 (Homo sapiens, UniProt Q9UPE1); test: Millipore kinase panel; type: biochemical; conditions: read-out: % Control
T19 construct: purchased Millipore KinaseProfiler (kinases); Cerep (receptors and ion channels)

MSK1 = molecular target: T20, MSK1 (Homo sapiens, UniProt O75582); test: Millipore kinase panel; type: biochemical; conditions: read-out: % Control
T20 construct: purchased Millipore KinaseProfiler (kinases); Cerep (receptors and ion channels)

SAPK2A = molecular target: T21, SAPK2A (Homo sapiens, UniProt Q16539); test: Millipore kinase panel; type: biochemical; conditions: read-out: % Control
T21 construct: purchased Millipore KinaseProfiler (kinases); Cerep (receptors and ion channels)

MT1 (ML1A) (h) = molecular target: T22, MT1 (ML1A) (h) (Homo sapiens, UniProt P48039); test: CEREP binding panel; conditions: agonist radioligand, read-out: % Inhibition of Control Specific Binding
T22 construct: purchased Millipore KinaseProfiler (kinases); Cerep (receptors and ion channels)

M1 (h) = molecular target: T23, M1 (h) (Homo sapiens, UniProt P11229); test: CEREP binding panel; conditions: antagonist radioligand, read-out: % Inhibition of Control Specific Binding
T23 construct: purchased Millipore KinaseProfiler (kinases); Cerep (receptors and ion channels)

MET = molecular target: T24, MET (Homo sapiens, UniProt P08581); test: Millipore kinase panel; type: biochemical; conditions: read-out: % Control
T24 construct: purchased Millipore KinaseProfiler (kinases); Cerep (receptors and ion channels)

MRCKBETA = molecular target: T25, MRCKBETA (Homo sapiens, UniProt Q9Y5S2); test: Millipore kinase panel; type: biochemical; conditions: read-out: % Control
T25 construct: purchased Millipore KinaseProfiler (kinases); Cerep (receptors and ion channels)
T25 sequence (Q9Y5S2 whole entry): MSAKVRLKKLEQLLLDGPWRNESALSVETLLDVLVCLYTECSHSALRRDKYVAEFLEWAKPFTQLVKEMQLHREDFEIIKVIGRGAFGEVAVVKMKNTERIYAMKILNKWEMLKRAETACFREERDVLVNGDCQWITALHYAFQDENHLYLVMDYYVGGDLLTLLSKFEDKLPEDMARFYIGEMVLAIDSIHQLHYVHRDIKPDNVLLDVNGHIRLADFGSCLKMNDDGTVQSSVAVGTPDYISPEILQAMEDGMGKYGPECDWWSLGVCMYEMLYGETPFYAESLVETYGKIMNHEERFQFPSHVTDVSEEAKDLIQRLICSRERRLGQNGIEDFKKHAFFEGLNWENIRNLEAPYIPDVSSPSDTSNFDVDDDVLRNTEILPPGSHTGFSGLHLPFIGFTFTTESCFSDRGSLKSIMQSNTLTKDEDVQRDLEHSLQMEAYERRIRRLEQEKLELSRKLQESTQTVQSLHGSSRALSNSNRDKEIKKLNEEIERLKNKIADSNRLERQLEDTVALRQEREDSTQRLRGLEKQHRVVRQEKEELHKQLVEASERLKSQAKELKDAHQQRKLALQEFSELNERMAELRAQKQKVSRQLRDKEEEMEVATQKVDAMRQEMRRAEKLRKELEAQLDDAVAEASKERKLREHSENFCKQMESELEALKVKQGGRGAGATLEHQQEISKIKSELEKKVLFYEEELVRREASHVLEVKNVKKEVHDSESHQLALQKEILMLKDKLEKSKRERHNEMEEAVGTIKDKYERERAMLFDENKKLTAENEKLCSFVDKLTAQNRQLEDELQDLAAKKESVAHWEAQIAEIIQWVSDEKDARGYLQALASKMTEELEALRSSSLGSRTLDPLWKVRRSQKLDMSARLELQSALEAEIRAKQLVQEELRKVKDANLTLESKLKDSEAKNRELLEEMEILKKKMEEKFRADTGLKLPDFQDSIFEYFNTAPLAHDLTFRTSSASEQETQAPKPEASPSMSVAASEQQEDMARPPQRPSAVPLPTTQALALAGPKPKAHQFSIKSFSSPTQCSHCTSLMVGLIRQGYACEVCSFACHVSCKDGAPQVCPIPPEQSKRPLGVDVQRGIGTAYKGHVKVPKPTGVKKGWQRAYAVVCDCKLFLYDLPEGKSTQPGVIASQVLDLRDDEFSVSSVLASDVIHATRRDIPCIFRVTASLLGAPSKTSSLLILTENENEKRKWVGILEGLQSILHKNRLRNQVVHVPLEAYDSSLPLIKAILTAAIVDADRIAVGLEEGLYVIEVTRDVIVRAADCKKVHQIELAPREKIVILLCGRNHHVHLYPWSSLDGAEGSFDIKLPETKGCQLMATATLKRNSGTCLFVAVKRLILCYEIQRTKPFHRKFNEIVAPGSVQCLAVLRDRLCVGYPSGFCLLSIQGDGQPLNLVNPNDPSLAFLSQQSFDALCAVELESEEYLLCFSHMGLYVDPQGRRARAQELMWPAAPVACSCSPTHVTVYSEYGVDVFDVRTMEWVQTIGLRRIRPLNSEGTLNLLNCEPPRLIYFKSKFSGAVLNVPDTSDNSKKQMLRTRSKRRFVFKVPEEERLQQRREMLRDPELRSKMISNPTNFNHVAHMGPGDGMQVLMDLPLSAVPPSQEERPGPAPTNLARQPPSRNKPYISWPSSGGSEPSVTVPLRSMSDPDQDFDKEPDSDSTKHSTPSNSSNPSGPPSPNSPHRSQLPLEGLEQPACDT

SAPK3 = molecular target: T26, SAPK3 (Homo sapiens, UniProt P53778); test: Millipore kinase panel; type: biochemical; conditions: read-out: % Control
T26 construct: purchased Millipore KinaseProfiler (kinases); Cerep (receptors and ion channels)

MC4 (h) = molecular target: T27, MC4 (h) (Homo sapiens, UniProt P32245); test: CEREP binding panel; conditions: agonist radioligand, read-out: % Inhibition of Control Specific Binding
T27 construct: purchased Millipore KinaseProfiler (kinases); Cerep (receptors and ion channels)

EPHB1 = molecular target: T28, EPHB1 (Homo sapiens, UniProt P54762); test: Millipore kinase panel; type: biochemical; conditions: read-out: % Control
T28 construct: purchased Millipore KinaseProfiler (kinases); Cerep (receptors and ion channels)

VRK2 = molecular target: T29, VRK2 (Homo sapiens, UniProt Q86Y07); test: Millipore kinase panel; type: biochemical; conditions: read-out: % Control
T29 construct: purchased Millipore KinaseProfiler (kinases); Cerep (receptors and ion channels)

MARK1 = molecular target: T30, MARK1 (Homo sapiens, UniProt Q9P0L2); test: Millipore kinase panel; type: biochemical; conditions: read-out: % Control
T30 construct: purchased Millipore KinaseProfiler (kinases); Cerep (receptors and ion channels)
T30 sequence (Q9P0L2 whole entry): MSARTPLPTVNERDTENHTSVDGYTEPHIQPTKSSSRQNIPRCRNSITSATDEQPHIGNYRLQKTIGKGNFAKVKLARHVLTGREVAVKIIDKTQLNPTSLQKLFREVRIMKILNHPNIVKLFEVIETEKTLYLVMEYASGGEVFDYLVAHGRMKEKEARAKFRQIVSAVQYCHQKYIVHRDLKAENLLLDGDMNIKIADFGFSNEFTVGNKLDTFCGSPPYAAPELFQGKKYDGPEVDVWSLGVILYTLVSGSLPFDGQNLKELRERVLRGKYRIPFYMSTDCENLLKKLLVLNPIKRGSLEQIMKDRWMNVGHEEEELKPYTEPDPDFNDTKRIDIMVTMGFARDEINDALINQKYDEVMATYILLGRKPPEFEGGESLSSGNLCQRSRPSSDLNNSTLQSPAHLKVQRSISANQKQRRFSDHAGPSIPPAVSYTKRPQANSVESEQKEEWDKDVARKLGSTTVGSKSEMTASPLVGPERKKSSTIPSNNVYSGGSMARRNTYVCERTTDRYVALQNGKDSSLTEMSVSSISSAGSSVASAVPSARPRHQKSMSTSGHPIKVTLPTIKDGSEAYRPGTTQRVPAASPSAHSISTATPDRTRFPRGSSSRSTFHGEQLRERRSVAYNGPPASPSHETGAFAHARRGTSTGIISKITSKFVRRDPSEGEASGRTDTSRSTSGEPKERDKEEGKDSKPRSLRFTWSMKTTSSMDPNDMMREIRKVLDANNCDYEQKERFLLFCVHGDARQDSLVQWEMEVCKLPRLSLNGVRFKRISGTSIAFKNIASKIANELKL

JNK2ALPHA2 = molecular target: T31, JNK2ALPHA2 (Homo sapiens, UniProt P45984); test: Millipore kinase panel; type: biochemical; conditions: read-out: % Control
T31 construct: purchased Millipore KinaseProfiler (kinases); Cerep (receptors and ion channels)
T31 sequence (P45984 whole entry): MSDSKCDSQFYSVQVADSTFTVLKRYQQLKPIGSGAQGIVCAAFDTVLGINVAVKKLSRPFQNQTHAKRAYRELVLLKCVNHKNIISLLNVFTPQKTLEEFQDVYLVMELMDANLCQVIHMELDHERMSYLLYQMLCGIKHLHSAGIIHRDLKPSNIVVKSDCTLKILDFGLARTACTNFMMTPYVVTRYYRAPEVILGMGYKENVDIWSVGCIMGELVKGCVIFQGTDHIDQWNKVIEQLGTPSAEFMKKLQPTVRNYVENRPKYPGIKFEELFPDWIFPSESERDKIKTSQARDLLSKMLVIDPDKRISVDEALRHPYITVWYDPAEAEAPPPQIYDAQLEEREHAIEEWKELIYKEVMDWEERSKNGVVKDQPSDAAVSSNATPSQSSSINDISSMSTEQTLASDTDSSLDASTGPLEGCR

FMS = molecular target: T32, FMS (Homo sapiens, UniProt P07333); test: Millipore kinase panel; type: biochemical; conditions: read-out: % Control
T32 construct: purchased Millipore KinaseProfiler (kinases); Cerep (receptors and ion channels)

SNK = molecular target: T33, SNK (Homo sapiens, UniProt Q9NYY3); test: Millipore kinase panel; type: biochemical; conditions: read-out: % Control
T33 construct: purchased Millipore KinaseProfiler (kinases); Cerep (receptors and ion channels)

NEK7 = molecular target: T34, NEK7 (Homo sapiens, UniProt Q8TDX7); test: Millipore kinase panel; type: biochemical; conditions: read-out: % Control
T34 construct: purchased Millipore KinaseProfiler (kinases); Cerep (receptors and ion channels)

CDK9/CYCLINT1 = molecular target: T35, CDK9/CYCLINT1 (Homo sapiens, UniProt P50750); test: Millipore kinase panel; type: biochemical; conditions: read-out: % Control
T35 construct: purchased Millipore KinaseProfiler (kinases); Cerep (receptors and ion channels)

Y2 (h) = molecular target: T36, Y2 (h) (Homo sapiens, UniProt P49146); test: CEREP binding panel; conditions: agonist radioligand, read-out: % Inhibition of Control Specific Binding
T36 construct: purchased Millipore KinaseProfiler (kinases); Cerep (receptors and ion channels)

EPHA2 = molecular target: T37, EPHA2 (Homo sapiens, UniProt P29317); test: Millipore kinase panel; type: biochemical; conditions: read-out: % Control
T37 construct: purchased Millipore KinaseProfiler (kinases); Cerep (receptors and ion channels)
T37 sequence (P29317 24-976): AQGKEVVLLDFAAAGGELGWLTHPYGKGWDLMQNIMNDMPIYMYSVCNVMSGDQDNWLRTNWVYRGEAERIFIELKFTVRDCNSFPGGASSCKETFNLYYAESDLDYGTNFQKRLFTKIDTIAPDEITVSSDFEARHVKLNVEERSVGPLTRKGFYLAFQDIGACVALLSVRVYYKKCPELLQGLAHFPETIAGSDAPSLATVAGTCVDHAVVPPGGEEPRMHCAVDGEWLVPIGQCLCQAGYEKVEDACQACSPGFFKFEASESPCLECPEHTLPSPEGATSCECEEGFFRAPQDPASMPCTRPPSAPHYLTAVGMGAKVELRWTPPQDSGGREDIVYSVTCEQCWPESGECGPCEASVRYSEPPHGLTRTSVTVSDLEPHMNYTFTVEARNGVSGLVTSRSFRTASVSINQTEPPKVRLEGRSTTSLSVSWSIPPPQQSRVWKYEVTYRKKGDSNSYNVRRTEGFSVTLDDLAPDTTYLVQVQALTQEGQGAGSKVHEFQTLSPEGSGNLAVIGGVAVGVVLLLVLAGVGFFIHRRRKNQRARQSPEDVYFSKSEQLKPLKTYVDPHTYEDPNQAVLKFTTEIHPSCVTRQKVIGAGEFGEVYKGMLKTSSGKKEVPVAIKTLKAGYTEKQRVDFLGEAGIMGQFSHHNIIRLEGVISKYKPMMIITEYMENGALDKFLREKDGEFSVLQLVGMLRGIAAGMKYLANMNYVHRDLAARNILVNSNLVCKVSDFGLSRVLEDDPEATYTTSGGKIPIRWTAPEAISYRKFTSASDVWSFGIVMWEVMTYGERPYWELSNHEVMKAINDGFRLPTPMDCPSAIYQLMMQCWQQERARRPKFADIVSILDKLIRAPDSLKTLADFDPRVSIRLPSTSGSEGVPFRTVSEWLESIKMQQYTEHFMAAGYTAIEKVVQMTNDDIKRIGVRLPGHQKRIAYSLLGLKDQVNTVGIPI

GCK = molecular target: T38, GCK (Homo sapiens, UniProt Q12851); test: Millipore kinase panel; type: biochemical; conditions: read-out: % Control
T38 construct: purchased Millipore KinaseProfiler (kinases); Cerep (receptors and ion channels)

EPHB4 = molecular target: T39, EPHB4 (Homo sapiens, UniProt P54760); test: Millipore kinase panel; type: biochemical; conditions: read-out: % Control
T39 construct: purchased Millipore KinaseProfiler (kinases); Cerep (receptors and ion channels)

TSSK1 = molecular target: T40, TSSK1 (Homo sapiens, UniProt Q9BXA7); test: Millipore kinase panel; type: biochemical; conditions: read-out: % Control
T40 construct: purchased Millipore KinaseProfiler (kinases); Cerep (receptors and ion channels)

KDR = molecular target: T41, KDR (Homo sapiens, UniProt P35968); test: Millipore kinase panel; type: biochemical; conditions: read-out: % Control
T41 construct: purchased Millipore KinaseProfiler (kinases); Cerep (receptors and ion channels)

TIE2 = molecular target: T42, TIE2 (Homo sapiens, UniProt Q02763); test: Millipore kinase panel; type: biochemical; conditions: read-out: % Control
T42 construct: purchased Millipore KinaseProfiler (kinases); Cerep (receptors and ion channels)

## Cn1cc(-c2ccc(-c3cncc(Cl)c3N3CCC4(CCNC4=O)CC3)cc2)cn1 [Compound 74, 8-(3-Chloro-5-(4-(1-methyl-1H-pyrazol-4-yl)phenyl)pyridin-4-yl)-2,8-diazaspiro[4.5]decan-1-one]
CCK1 (CCKA) (h)
  inhibition at 10 µM: 2%
JNK3
  remaining activity at 1 µM: -7%
5-HT1A (h)
  inhibition at 10 µM: 19%
NK3 (h)
  inhibition at 10 µM: 4%
NEK3
  remaining activity at 1 µM: 15%
SGK3
  remaining activity at 1 µM: -9%
BLK
  % Control: 0% and 6%
MINK
  remaining activity at 1 µM: -12%
RET
  remaining activity at 1 µM: 1%
H1 (h)
  inhibition at 10 µM: 16%
CSK
  remaining activity at 1 µM: 0%
RIPK2
  remaining activity at 1 µM: -6%
CKIT
  remaining activity at 1 µM: 13%
EPHA3
  remaining activity at 1 µM: 6%
Na+ channel (site 2)
  % Inhibition of Control Specific Binding: 29%
MAPKAP-K2
  remaining activity at 1 µM: 0%
RSK1
  remaining activity at 1 µM: -23%
PYK2
  remaining activity at 1 µM: 5%
MAPK1
  remaining activity at 1 µM: 11%
PDGFRALPHA
  remaining activity at 1 µM: -5%
MSSK1
  remaining activity at 1 µM: -2%
MSK1
  remaining activity at 1 µM: 5%
SAPK2A
  remaining activity at 1 µM: 1%
MT1 (ML1A) (h)
  inhibition at 10 µM: 34%
M1 (h)
  inhibition at 10 µM: 21%
MET
  remaining activity at 1 µM: 3%
MRCKBETA
  remaining activity at 1 µM: -4%
SAPK3
  remaining activity at 1 µM: 13%
MC4 (h)
  inhibition at 10 µM: 4%
EPHB1
  remaining activity at 1 µM: -7%
VRK2
  remaining activity at 1 µM: -2%
MARK1
  remaining activity at 1 µM: 2%
JNK2ALPHA2
  remaining activity at 1 µM: 5%
FMS
  remaining activity at 1 µM: -21%
SNK
  remaining activity at 1 µM: -1%
NEK7
  remaining activity at 1 µM: 2%
CDK9/CYCLINT1
  remaining activity at 1 µM: -29%
Y2 (h)
  inhibition at 10 µM: -2%
EPHA2
  remaining activity at 1 µM: -7%
GCK
  remaining activity at 1 µM: -28%
EPHB4
  remaining activity at 1 µM: 10%
TSSK1
  remaining activity at 1 µM: 2%
KDR
  remaining activity at 1 µM: 10%
TIE2
  remaining activity at 1 µM: -25%
